For this assay, the target named is human PDE10A2 (Homo sapiens (Human), UniProt Q9Y233). As to the kind of experiment: PDE10 fluorescence polarization (IMAP FP) inhibition assay. The note with it: human PDE10 enzyme, FAM-labeled cAMP substrate, read-out: PDE10A Ki. The format is biochemical. How it is done: The activity of the compounds in accordance with the present invention as PDE10 inhibitors may be readily determined without undue experimentation using a fluorescence polarization (FP) methodology that is well known in the art (Huang, W., et al.,J. Biomol Screen, 2002, 7: 215).
In a typical experiment the PDE10 inhibitory activity of the compounds of the present invention was determined in accordance with the following experimental method. PDE10A2 was amplified from human fetal brain cDNA (Clontech, Mountain View, Calif.) using a forward primer corresponding to nucleotides 56-77 of human PDE10A2 (Accession No. AF127480, Genbank Identifier 4894716), containing a Kozak consensus sequence, and a reverse primer corresponding to nucleotides 2406-2413 of human PDE10A2 (Accession No. AF127480, Genbank Identifier 4894716). Amplification with Easy-A polymerase (Stratagene, La Jolla, Calif.) was 95° C. for 2 minutes followed by thirty three cycles of 95° C. for 40 seconds, 55° C. for 30 seconds, and 72° C. for 2 minutes 48 seconds. Final extension was 72° C. for 7 minutes. The PCR product was TA cloned into pcDNA3.2-TOPO (Invitrogen, Carlsbad, Calif.) according to standard protocol. AD293 cells with 70-80% confluency were transiently transfected with human PDE10A2/pcDNA3.2-TOPO using Lipofectamine 2000 according to manufacturer specifications (Invitrogen, Carlsbad, Calif.). Cells were harvested 48 hours post-transfection and lysed by sonication (setting 3, 10×5 sec pulses) in a buffer containing 20 mM HEPES, 1 mM EDTA and protease inhibitor cocktail (Roche). Lysate was collected by centrifugation at 75,000×g for 20 minutes. Supernatant containing the cytoplasmic fraction was used for evaluation of PDE10A2 activity. The fluorescence polarization assay for cyclic nucleotide phosphodiesterases was performed using an IMAP® FP kit supplied by Molecular Devices, Sunnyvale, Calif. (product # R8139). IMAP® technology has been applied previously to phosphodiesterase assays (Huang, W., et al., J. Biomol Screen, 2002, 7: 215). Assays were performed at room temperature in 384-well microtiter plates with an incubation volume of 20.2 μL. Solutions of test compounds were prepared in DMSO and serially diluted with DMSO to yield 8 μL of each of 10 solutions differing by 3-fold in concentration, at 32 serial dilutions per plate. 100% inhibition is determined using a known PDE10 inhibitor, which can be any compound that is present at 5,000 times its Ki value in the assay described as follows, such as papaverine (see Siuciak, et al. Neuropharmacology (2006) 51:386-396; Becker, et al. Behav Brain Res (2008) 186(2):155-60; Threlfell, et al., J Pharmacol Exp Ther (2009) 328(3):785-795), 2-{-4-[pyridin-4-yl-1-(2,2,2-trifluoroethyl)-1H-pyrazol-3-yl]phenoxymethyl}quinoline succinic acid or 2-[4-(1-methyl-4-pyridin-4-yl-1H-pyrazol-3-yl)-phenoxymethyl]quinoline succinic acid (see Schmidt, et al. J Pharmacol Exp Ther (2008) 325:681-690; Threlfell, et al., J Pharmacol Exp Ther (2009) 328(3): 785-795). 0% of inhibition is determined by using DMSO (1% final concentrations).
A Labcyte Echo 555 (Labcyte, Sunnyvale, Calif.) is used to dispense […] from each well of the titration plate to the 384 well assay plate. A solution of enzyme ( 1/1600 dilution from aliquots; sufficient to produce 20% substrate conversion) and a separate solution of FAM-labeled cAMP PDE from Molecular Devices (product # R7506), at a final concentration of 50 nM are made in the assay buffer (10 mM Tris HCl, pH 7.2, 10 mM MgCl2, 0.05% NaN3 0.01% Tween-20, and 1 mM DTT). The enzyme and the substrate are then added to the assay plates in two consecutive additions of 10 μL, and then shaken to mix. The reaction is allowed to proceed at room temperature for 30 minutes. A binding solution is then made from the kit components, comprised of 80% Solution A, 20% Solution B and binding reagent at a volume of 1/600 the total binding solution. […]

Chain of human PDE10A2 (Q9Y233 267-1055): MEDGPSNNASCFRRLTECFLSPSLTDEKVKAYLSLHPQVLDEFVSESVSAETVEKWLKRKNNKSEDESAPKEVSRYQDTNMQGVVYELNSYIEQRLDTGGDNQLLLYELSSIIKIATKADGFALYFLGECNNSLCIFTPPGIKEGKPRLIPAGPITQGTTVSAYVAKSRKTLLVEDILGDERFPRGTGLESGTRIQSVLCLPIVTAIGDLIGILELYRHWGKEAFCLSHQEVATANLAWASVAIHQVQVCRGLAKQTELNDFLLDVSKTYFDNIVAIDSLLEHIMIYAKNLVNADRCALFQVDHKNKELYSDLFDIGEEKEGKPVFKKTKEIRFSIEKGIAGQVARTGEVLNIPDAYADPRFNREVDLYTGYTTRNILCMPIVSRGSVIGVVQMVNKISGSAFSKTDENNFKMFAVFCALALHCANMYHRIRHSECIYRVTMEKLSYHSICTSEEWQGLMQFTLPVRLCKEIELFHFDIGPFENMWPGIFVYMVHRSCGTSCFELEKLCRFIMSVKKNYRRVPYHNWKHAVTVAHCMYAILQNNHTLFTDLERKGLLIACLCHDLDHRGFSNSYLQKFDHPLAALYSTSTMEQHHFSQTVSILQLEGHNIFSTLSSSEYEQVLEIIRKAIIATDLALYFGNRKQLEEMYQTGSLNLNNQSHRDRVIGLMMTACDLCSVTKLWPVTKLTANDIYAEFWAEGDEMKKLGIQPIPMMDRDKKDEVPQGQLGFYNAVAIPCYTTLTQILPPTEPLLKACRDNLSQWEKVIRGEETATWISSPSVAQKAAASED

As for `COc1ccc(CCCCc2cc(NCc3sc(C)nc3C)n3nccc3n2)nc1` [Compound 1-10, N-[(2,4-dimethyl-1,3-thiazol-5-yl)methyl]-5-[4-(5-methoxy-pyridin-2-yl)butyl]pyrazolo [1,5-a]pyrimidin-7-amine], the Ki is 0.37 nM.
With `Cc1nc(C)c(CNc2cc(C(=O)NC[C@H]3C[C@@H]3c3ccc4ccccc4n3)nc3ccnn23)s1` [Compound 1-23, 7-((2,4-dimethylthiazol-5-yl)methylamino)-N-(((1S,2S)-2-(quinolin-2-yl)cyclopropyl)methyl) pyrazolo[1,5-a] pyrimidine-5-carboxamide], the Ki stood at 0.18 nM.
On to `Cc1nc(C)c(CNc2cc(C(=O)NCCc3ccccn3)nc3ccnn23)s1` [Compound 1-25, 7-((2,4-dimethylthiazol-5-yl)methylamino)-N-(2-(pyridin-2-yl)ethyl)pyrazolo [1,5-a] pyrimidine-5-earboxanaide], for which the Ki was 1.1 nM.
For `Cc1c(OC[C@H]2C[C@@H]2c2ccccn2)nc2ccnn2c1NCc1cnn(C)c1` [Compound 1-20, 6-methyl-N-[(1-methyl-1H-pyrazol-4-yl)methyl]-5-{[(1S,2S)-2-(pyridin-2-yl)cyclopropyl]methoxy} pyrazolo[1,5-a] pyrimidin-7-amine], the Ki amounted to 2.52 nM.
With `Cc1ccc([C@H]2C[C@@H]2COc2cc(Oc3ccc(C)nc3)n3nccc3n2)nc1` [Compound 1-22, 5-{[(1S,2S)-2-(5-methylpyridin-2-yl)cyclopropyl]methoxy}-7-[(6-methylpyridin-3-yl)oxy]pyrazolo[1,5-a] pyrimidine], the Ki was 20 nM.
For `Cc1ncc(CNc2cc(OC[C@H]3C[C@@H]3c3ccccn3)nc3ccnn23)s1` [Compound 1-4, (S,S)-N-[(2-methyl-1,3-thiazol-5-yl)-methyl]-5-{[2-(pyridin-2-yl)cyclopropyl]methoxy} pyrazolo[1,5-a]pyrimidin-7-amine], the Ki was 0.11 nM.
For `Cc1nc(C)c(CNc2cc(C3CC3)nc3ccnn23)s1` [Compound 1-9, 5-cyclopropyl-N-[(2,4-dimethyl-1,3-thiazol-5-yl)methyl]pyrazolo [1,5-a]pyrim-idin-7-amine] the value was 9.2 nM; for `Cc1nc(C)c(CNc2cc(C(C)C[C@@H]3C[C@H]3c3ccccn3)nc3ccnn23)s1` (stereo in doubt) [Compound 1-13, N-[(2,4-dimethyl-1,3-thiazol-5-yl)methyl]-5-{1-[2-(pyridin-2-yl)cyclopropyl]propan-2-yl}pyrazolo[1,5-a] pyrimidin-7-amine], 76.9 nM; for `Cc1nnc(CNc2c(F)c(OC[C@H]3C[C@@H]3c3ccccn3)nc3ccnn23)s1` [Compound 1-18, 6-fluoro-N-[(5-methyl-1,3,4-thiadiazol-2-yl)methyl]-5-{[(1S,2S)-2-(pyridin-2-yl)cyclopropyl]methoxy} pyrazolo[1,5-a] pyrimidin-7-amine], 0.08 nM.
Under `Cc1nc(C)c(CNc2cc(CCC#Cc3ccc4ccccc4n3)nc3ccnn23)s1` [Compound 1-15, N-[(2,4-dimethyl-1,3-thiazol-5-yl)methyl]-5-[4-(quinolin-2-yl)but-3-yn-1-yl]pyrazolo[1,5-a] pyrimidin-7-amine] stands 0.14 nM; under `COc1ccc([C@H]2C[C@@H]2COc2cc(NCc3oc(C)nc3C)n3nccc3n2)nc1` (stereo in doubt) [Compound 1-3, N-[(2,4-dimethyl-1,3-oxazol-5-yl)methyl]-5-{[2-(5-methoxy-pyridin-2-yl)cyclopropyl]-methoxy}pyrazolo [1,5-a]pyrimidin-7-amine], 1.3 nM.

The Ki is the dissociation constant of the complex between target and ligand, obtained from inhibition or displacement.

Source of the values: patent publication US8957077B2, “Pyrazolopyrimidine PDE 10 inhibitors” (Merck Sharp & Dohme Corp., priority 2010, dated 2015).
